{"source": "patent US20260102501A1", "about": "“ANTI-CANCER NUCLEAR HORMONE RECEPTOR-TARGETING COMPOUNDS” (Nuvation Bio Inc., priority 2022, published 2026)", "key": {"LNCap cells": {"tested_on": "LNCap cells", "assay": "Cell viability assay (CellTiterGlo)", "type": "cell-based", "settings": "Homo sapiens, 144 h; for IC50: read-out: LNCap (IC50, nM); for pIC50: 6 days incubation, CellTiterGlo, read-out: LNCap (IC50)"}, "22Rv1 cells": {"tested_on": "22Rv1 cells", "assay": "Cell viability assay (CellTiterGlo)", "settings": "Homo sapiens, 22Rv1, 144 h, read-out: 22RV1 (IC50, nM)", "experimental": "Cell viability assay: LNCap, 22Rv1, MCF7, MDAMB361, T47D, and IEC6 cells were seeded at a density of 500-2000 cells/well in 96 well plates, and a ‘T0’ (timepoint 0) was included along with the assay plate. The plates were then incubated at 37° C., 5% CO2 in a cell culture incubator overnight. On the next day, the ‘T0’ plate was assayed using CellTiterGlo (Promega, Inc) according to the manufacturer's instructions. The appropriate compounds were diluted in DMSO and added to the assay plate (final DMSO concentration of 0.1-0.2%) on the next day. The assay plates were incubated for 6 days at 37° C., 5% CO2. After the incubation period, the plates were assayed using CellTiterGlo (Promega, Inc) according to the manufacturer's instructions and luminescence was read on the En Vision plate reader. […] GraphPadPrism was used to analyze the data and determine GI50/IC50 values."}, "[1]": {"biological_target": "T1, AR (cytosol from LnCaP cells) (Homo sapiens, UniProt P10275, T878A)", "T1 sequence (P10275 1-920 T878A)": "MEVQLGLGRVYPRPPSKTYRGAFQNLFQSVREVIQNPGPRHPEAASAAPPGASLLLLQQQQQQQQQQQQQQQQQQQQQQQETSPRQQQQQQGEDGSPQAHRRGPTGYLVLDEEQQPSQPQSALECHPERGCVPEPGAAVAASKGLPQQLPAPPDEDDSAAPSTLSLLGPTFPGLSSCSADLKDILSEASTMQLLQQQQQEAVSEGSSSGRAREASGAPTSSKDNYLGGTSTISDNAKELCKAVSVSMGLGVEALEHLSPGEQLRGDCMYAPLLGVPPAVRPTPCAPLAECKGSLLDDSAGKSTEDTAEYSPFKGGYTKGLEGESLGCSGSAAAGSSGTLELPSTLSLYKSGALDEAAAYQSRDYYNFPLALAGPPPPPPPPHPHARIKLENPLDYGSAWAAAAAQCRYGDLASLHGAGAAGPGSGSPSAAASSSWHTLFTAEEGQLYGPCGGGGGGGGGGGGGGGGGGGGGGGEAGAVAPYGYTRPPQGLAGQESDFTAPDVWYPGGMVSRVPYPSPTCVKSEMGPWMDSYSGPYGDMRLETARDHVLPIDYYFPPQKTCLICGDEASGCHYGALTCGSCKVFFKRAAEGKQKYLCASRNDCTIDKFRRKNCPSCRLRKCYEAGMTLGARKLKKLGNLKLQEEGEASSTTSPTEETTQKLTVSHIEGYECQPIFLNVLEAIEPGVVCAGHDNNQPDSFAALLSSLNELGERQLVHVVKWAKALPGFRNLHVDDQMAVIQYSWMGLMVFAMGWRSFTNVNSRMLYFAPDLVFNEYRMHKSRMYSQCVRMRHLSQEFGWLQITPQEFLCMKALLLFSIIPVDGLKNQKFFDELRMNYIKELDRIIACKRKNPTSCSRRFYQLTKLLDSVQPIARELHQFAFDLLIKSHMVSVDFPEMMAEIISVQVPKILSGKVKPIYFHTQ", "assay": "AR binding assay (3H-R1881 displacement)", "experimental": "The plate was then centrifuged at 3000 rpm for 30 minutes at 4° C."}, "IEC6 cells": {"tested_on": "IEC6 cells", "assay": "Cell viability assay (CellTiterGlo)", "settings": "Rattus norvegicus, IEC-6, 144 h, read-out: IEC-6 (IC50, nM)"}}, "note": "pIC50: −log10 of the molar value. Read-outs that look alike come from different tables or passages of the source."}
{"smiles": "CC[C@@]1(O)C(=O)OCc2c1cc1n(c2=O)Cc2cc3c(CN4CCN(C(=O)C5CCN(c6ccc(C(=O)N[C@H]7CC[C@H](Oc8ccc(C#N)c(Cl)c8)CC7)nn6)CC5)CC4)c(OC(=O)N(C)c4ccccc4)ccc3nc2-1", "note": "[Compound 2, (S)-10-((4-(1-(6-(((1r,4r)-4-(3-Chloro-4-cyanophenoxy)cyclohexyl)carbamoyl)pyridazin-3-yl)piperidine-4-carbonyl)piperazin-1-yl)methyl)-4-ethyl-4-hydroxy-3,14-dioxo-3,4,12,14-tetrahydro-1H-pyrano[3′,4′:6,7]indolizino[1,2-b]quinolin-9-yl Methyl(phenyl)carbamate]", "values": [{"measurement": "IC50", "setting": "LNCap cells", "result": "> 1000", "unit": "nM"}, {"measurement": "IC50", "setting": "22Rv1 cells", "result": "> 1000", "unit": "nM"}, {"measurement": "pIC50", "setting": "[1]", "result": "6.00 to 7.00"}]}
{"smiles": "CC[C@@]1(O)C(=O)OCc2c1cc1n(c2=O)Cc2cc3c(CN(C)C(=O)C(C)(C)N(C)C(=O)CO[C@H]4CC[C@H]5[C@@H]6CC[C@H]7CC(=O)CC[C@]7(C)[C@H]6CC[C@]45C)c(O)ccc3nc2-1", "note": "[Compound 4, 2-(2-(((5S,8R,9S,10S,13S,14S,17S)-10,13-Dimethyl-3-oxohexadecahydro-1H-cyclopenta[a]phenanthren-17-yl)oxy)-N-methylacetamido)-N—(((S)-4-ethyl-4,9-dihydroxy-3,14-dioxo-3,4,12,14-tetrahydro-1H-pyrano[3′,4′:6,7]indolizino[1,2-b]quinolin-10-yl)methyl)-N,2-dimethylpropanamide]", "values": [{"measurement": "pIC50", "setting": "LNCap cells", "result": "6.00 to 7.00"}, {"measurement": "IC50", "setting": "22Rv1 cells", "result": "101 to 1000", "unit": "nM"}]}
{"smiles": "CC[C@@]1(O)C(=O)OCc2c1cc1n(c2=O)Cc2cc3c(CN(C)C)c(OC(=O)N4CCN(C(=O)CCCCCNC(=O)c5ccc(N6C(=S)N(c7ccc(C#N)c(C(F)(F)F)c7)C(=O)C6(C)C)cc5F)CC4)ccc3nc2-1", "note": "[Compound 9, (S)-10-((Dimethylamino)methyl)-4-ethyl-4-hydroxy-3,14-dioxo-3,4,12,14-tetrahydro-1H-pyrano[3′,4′:6,7]indolizino[1,2-b]quinolin-9-yl 4-(6-(4-(3-(4-cyano-3-(trifluoromethyl)phenyl)-5,5-dimethyl-4-oxo-2-thioxoimidazolidin-1-yl)-2-fluorobenzamido)hexanoyl)piperazine-1-carboxylate]", "values": [{"measurement": "IC50", "setting": "LNCap cells", "result": "10 to 100", "unit": "nM"}, {"measurement": "IC50", "setting": "22Rv1 cells", "result": "10 to 100", "unit": "nM"}, {"measurement": "IC50", "setting": "IEC6 cells", "result": "> 1000", "unit": "nM"}, {"measurement": "pIC50", "setting": "[1]", "result": "< 6.00"}]}
{"smiles": "CC[C@@]1(O)C(=O)OCc2c1cc1n(c2=O)Cc2cc3c(CN4CCN(CC5CCN(c6ccc(C(=O)N[C@H]7CC[C@H](N(C)c8ccc(C#N)c(Cl)c8)CC7)nn6)CC5)CC4)c(O)ccc3nc2-1", "note": "[Compound 28, N-((1r,4r)-4-((3-Chloro-4-cyanophenyl)(methyl)amino)cyclohexyl)-6-(4-((4-(((S)-4-ethyl-4,9-dihydroxy-3,14-dioxo-3,4,12,14-tetrahydro-1H-pyrano[3′,4′:6,7]indolizino[1,2-b]quinolin-10-yl)methyl)piperazin-1-yl)methyl)piperidin-1-yl)pyridazine-3-carboxamide]", "values": [{"measurement": "pIC50", "setting": "LNCap cells", "result": "7.00 to 8.00"}, {"measurement": "IC50", "setting": "22Rv1 cells", "result": "10 to 100", "unit": "nM"}, {"measurement": "pIC50", "setting": "[1]", "result": "7.00 to 8.00"}]}
{"smiles": "CC[C@@]1(O)C(=O)OCc2c1cc1n(c2=O)Cc2cc3c(CN(C)C)c(OC(=O)N4CCN(CC5CCN(c6ccc(N7C(=S)N(c8ccc(C#N)c(Cl)c8)C(=O)C7(C)C)cc6)CC5)CC4)ccc3nc2-1", "note": "[Compound 58, (S)-10-((dimethylamino)methyl)-4-ethyl-4-hydroxy-3,14-dioxo-3,4,12,14-tetrahydro-1H-pyrano[3′,4′:6,7]indolizino[1,2-b]quinolin-9-yl 4-((1-(4-(3-(3-chloro-4-cyanophenyl)-5,5-dimethyl-4-oxo-2-thioxoimidazolidin-1-yl)phenyl)piperidin-4-yl)methyl)piperazine-1-carboxylate]", "values": [{"measurement": "IC50", "setting": "LNCap cells", "result": "101 to 1000", "unit": "nM"}, {"measurement": "IC50", "setting": "22Rv1 cells", "result": "10 to 100", "unit": "nM"}, {"measurement": "IC50", "setting": "IEC6 cells", "result": "101 to 1000", "unit": "nM"}, {"measurement": "pIC50", "setting": "[1]", "result": "7.00 to 8.00"}]}
{"smiles": "CC[C@@]1(O)C(=O)OCc2c1cc1n(c2=O)Cc2cc3c(CN4CCN(C(=O)C5CCN(c6ccc(C(=O)N[C@H]7CC[C@H](Oc8ccc(C#N)c(Cl)c8)CC7)nn6)CC5)CC4)c(OC(=O)N4CCN(C)CC4)ccc3nc2-1", "note": "[Compound No. 10, (S)-10-((4-(1-(6-(((1r,4r)-4-(3-Chloro-4-cyanophenoxy)cyclohexyl)carbamoyl)pyridazin-3-yl)piperidine-4-carbonyl)piperazin-1-yl)methyl)-4-ethyl-4-hydroxy-3,14-dioxo-3,4,12,14-tetrahydro-1H-pyrano[3′,4′:6,7]indolizino[1,2-b]quinolin-9-yl 4-Methylpiperazine-1-carboxylate]", "values": [{"measurement": "IC50", "setting": "LNCap cells", "result": "> 1000", "unit": "nM"}, {"measurement": "IC50", "setting": "22Rv1 cells", "result": "> 1000", "unit": "nM"}, {"measurement": "IC50", "setting": "IEC6 cells", "result": "> 1000", "unit": "nM"}, {"measurement": "pIC50", "setting": "[1]", "result": "7.00 to 8.00"}]}
{"smiles": "CC[C@@]1(O)C(=O)OCc2c1cc1n(c2=O)Cc2cc3c(CN(C)C)c(OC(=O)N4CCN(C(=O)C5CCN(c6ccc(C(=O)N[C@H]7CC[C@H](N(C)c8ccc(C#N)c(Cl)c8)CC7)nn6)CC5)CC4)ccc3nc2-1", "note": "[Compound No. 11, (S)-10-((Dimethylamino)methyl)-4-ethyl-4-hydroxy-3,14-dioxo-3,4,12,14-tetrahydro-1H-pyrano[3′,4′:6,7]indolizino[1,2-b]quinolin-9-yl 4-(1-(6-(((1r,4r)-4-((3-chloro-4-cyanophenyl)(methyl)amino)-cyclohexyl)carbamoyl)pyridazin-3-yl)piperidine-4-carbonyl)piperazine-1-carboxylate]", "values": [{"measurement": "IC50", "setting": "LNCap cells", "result": "10 to 100", "unit": "nM"}, {"measurement": "IC50", "setting": "22Rv1 cells", "result": "10 to 100", "unit": "nM"}, {"measurement": "IC50", "setting": "IEC6 cells", "result": "101 to 1000", "unit": "nM"}, {"measurement": "pIC50", "setting": "[1]", "result": "> 8.00"}]}
{"smiles": "CC[C@@]1(O)C(=O)OCc2c1cc1n(c2=O)Cc2cc3c(CN4CCN(C(=O)C5CCN(c6ccc(C(=O)N[C@H]7CC[C@H](Oc8ccc(C#N)c(Cl)c8)CC7)nn6)CC5)CC4)c(OC(=O)N4CCC(N5CCCCC5)CC4)ccc3nc2-1", "note": "[Compound No. 13, (S)-10-((4-(1-(6-(((1r,4r)-4-(3-Chloro-4-cyanophenoxy)cyclohexyl)carbamoyl)pyridazin-3-yl)piperidine-4-carbonyl)piperazin-1-yl)methyl)-4-ethyl-4-hydroxy-3,14-dioxo-3,4,12,14-tetrahydro-1H-pyrano[3′,4′:6,7]indolizino[1,2-b]quinolin-9-yl [1,4′-bipiperidine]-1′-carboxylate]", "values": [{"measurement": "IC50", "setting": "LNCap cells", "result": "> 1000", "unit": "nM"}, {"measurement": "IC50", "setting": "22Rv1 cells", "result": "> 1000", "unit": "nM"}, {"measurement": "IC50", "setting": "IEC6 cells", "result": "> 1000", "unit": "nM"}, {"measurement": "pIC50", "setting": "[1]", "result": "7.00 to 8.00"}]}
{"smiles": "CC[C@@]1(O)C(=O)OCc2c1cc1n(c2=O)Cc2cc3c(CN4CCN(C(=O)C5CCN(c6ccc(C(=O)N[C@H]7CC[C@H](N(C)c8ccc(C#N)c(Cl)c8)CC7)nn6)CC5)CC4)c(O)ccc3nc2-1", "note": "[Compound No. 15, N-((1r,4r)-4-((3-Chloro-4-cyanophenyl)(methyl)amino)cyclohexyl)-6-(4-(4-(((S)-4-ethyl-4,9-dihydroxy-3,14-dioxo-3,4,12,14-tetrahydro-1H-pyrano[3′,4′:6,7]indolizino[1,2-b]quinolin-10-yl)methyl)-piperazine-1-carbonyl)piperidin-1-yl)pyridazine-3-carboxamide]", "values": [{"measurement": "pIC50", "setting": "LNCap cells", "result": "7.00 to 8.00"}, {"measurement": "IC50", "setting": "22Rv1 cells", "result": "10 to 100", "unit": "nM"}, {"measurement": "IC50", "setting": "IEC6 cells", "result": "> 1000", "unit": "nM"}, {"measurement": "pIC50", "setting": "[1]", "result": "> 8.00"}]}
{"smiles": "CC[C@@]1(O)C(=O)OCc2c1cc1n(c2=O)Cc2cc3c(CN(C)C)c(OCC4CCN(C(=O)C5CCN(c6ccc(C(=O)N[C@H]7CC[C@H](Oc8ccc(C#N)c(Cl)c8)CC7)nn6)CC5)CC4)ccc3nc2-1", "note": "[Compound No. 16, N-((1r,4r)-4-(3-Chloro-4-cyanophenoxy)cyclohexyl)-6-(4-(4-((((S)-10-((dimethylamino)-methyl)-4-ethyl-4-hydroxy-3,14-dioxo-3,4,12,14-tetrahydro-1H-pyrano[3′,4′:6,7]indolizino[1,2-b]quinolin-9-yl)oxy)methyl)piperidine-1-carbonyl)piperidin-1-yl)pyridazine-3-carboxamide]", "values": [{"measurement": "pIC50", "setting": "LNCap cells", "result": "6.00 to 7.00"}, {"measurement": "IC50", "setting": "22Rv1 cells", "result": "101 to 1000", "unit": "nM"}, {"measurement": "IC50", "setting": "IEC6 cells", "result": "> 1000", "unit": "nM"}, {"measurement": "pIC50", "setting": "[1]", "result": "7.00 to 8.00"}]}
{"smiles": "CC[C@@]1(O)C(=O)OCc2c1cc1n(c2=O)Cc2cc3c(CN(C)C)c(OC(=O)N4C[C@H](C)N(C(=O)C5CCN(c6ccc(C(=O)N[C@H]7CC[C@H](N(C)c8ccc(C#N)c(Cl)c8)CC7)nn6)CC5)C[C@H]4C)ccc3nc2-1", "note": "[Compound No. 17, (S)-10-((Dimethylamino)methyl)-4-ethyl-4-hydroxy-3,14-dioxo-3,4,12,14-tetrahydro-1H-pyrano[3′,4′:6,7]indolizino[1,2-b]quinolin-9-yl (2R,5S)-4-(1-(6-(((1r,4r)-4-((3-chloro-4-cyanophenyl)(methyl)-amino)cyclohexyl)carbamoyl)pyridazin-3-yl)piperidine-4-carbonyl)-2,5-dimethylpiperazine-1-carboxylate]", "values": [{"measurement": "IC50", "setting": "LNCap cells", "result": "101 to 1000", "unit": "nM"}, {"measurement": "IC50", "setting": "22Rv1 cells", "result": "101 to 1000", "unit": "nM"}, {"measurement": "IC50", "setting": "IEC6 cells", "result": "> 1000", "unit": "nM"}, {"measurement": "pIC50", "setting": "[1]", "result": "7.00 to 8.00"}]}
